In patent US5919896A, “PF4A receptor” (Genentech, Inc., priority 1997, dated 1999):

B1: Rantes: C-C peptide of the platelet factor 4 superfamily (protein)
chain: SPYSSDTTPCCFAYIARPLPRAHIKEYFYTSGKCSNPAVVFVTRKNRQVCANPEKKWVREYINSLEMS
B2: C5α: neutrophil chemoattractant C5a (protein, UniProt P01031 678-751, looked up)
C5a anaphylatoxin: TLQKKIEEIAAKYKHSVVKKCCYDGACVNNDETCEQRAARISLGPRCIKAFTECCVVASQLRANISHKDMQLGR
modifications: C5a anaphylatoxin
notes: neutrophil chemoattractant C5a
B3: NAP-2: neutrophil activating protein-2, C-X-C family member (protein, UniProt P02775 59-128, looked up)
Neutrophil-activating peptide …: AELRCMCIKTTSGIHPKNIQSLEVIGKGTHCNQVEVIATLKDGRKICLDPDAPRIKKIVQKKLAGDESAD
modifications: Neutrophil-activating peptide 2

Key:
[1] = system: IL-8 receptor (clone pRK5B.il8r1.1) on transfected COS cells; assay: 125I-IL-8 binding competition on transfected COS cells; design: species or system human; conditions: COS cells transfected with clone pRK5B.il8r1.1
Protocol: Samanta et al., supra, Besemer et al., supra, Grob et al., supra.
Binding competition was performed with electroporated COS-7 cells after 1 day of expression in 6-well dishes (about 175,000 cells/dish). […] Wells were then washed, the cells harvested with trypsin, and counted. […] Neutrophil binding was performed as described (Pacholczyk et al., supra) but for 2 hr at 4° C.

[2] = system: human IL-8 receptor (clone pRK5B.il8r1.1); assay: Flow cytometry intracellular Ca++ response of 293 cells transfected with IL-8 receptor; type: cell-based
Protocol: (§1) After two days, the cells were loaded with 2 μM indo-1 acetoxymethyl ester in RPMI medium (Sigma) for 30 min at 37° C. Intracellular Ca^++ was measured with a Coulter 753 flow cytometer using the ratio of 405 and 525 nm fluorescence. Grynkiewicz et al., J. Biol. Chem., 260: 3440-3450 (1985).
(§2) No response is found to fMLP. […] Oppenheim et al., supra.

[3] = system: human fMLP receptor; assay: Flow cytometry intracellular Ca++ response of 293 cells transfected with fMLP receptor; type: cell-based; conditions: 293 cells transfected with human fMLP receptor
Protocol: as §1
(§3) Oppenheim et al., supra; Korchak et al., J. Biol Chem., 259: 4076-4082 (1984). […] Oppenheim et al., supra.

[4] = system: expressed IL-8 receptor
Source text: as §3

[5] = system: IL8R-A; conditions: Holmes et al., cited from earlier work
[6] = system: expressed human fMLP receptor; assay: 125I-IL-8 binding to the expressed human fMLP receptor
Source text: as §2

[7] = system: Murphy and Tiffany receptor; assay: Ligand affinity of the Murphy and Tiffany receptor (studies herein); type: binding, human
Source text: Murphy and Tiffany, supra, describe a receptor having a high degree of homology to the receptor of FIG. 2. […] This could be readily accomplished by routine screening methods.

[8] = system: receptor of FIG. 4 (8rr.20.15); assay: Response of recombinant cells bearing the FIG. 4 receptor to PF4 superfamily ligands; type: cell-based, human; conditions: preliminary experiments
[9] = system: receptor of FIG. 5 (8rr.9); assay: Response of recombinant cells bearing the FIG. 5 receptor to PF4 superfamily ligands; type: cell-based, human; conditions: preliminary experiments
[10] = biological target: IL8R-B; conditions: background, Murphy and Tiffany; read-out: affinity of IL8R-B for ligand; cited from earlier work
[11] = system: receptor of FIG. 2 (IL-8 receptor); assay: MGSA binding to the receptor of FIG. 2; design: species or system human
Source text: Murphy and Tiffany, supra, describe a receptor having a high degree of homology to the receptor of FIG. 2. […] This could be readily accomplished by routine screening methods. […] On the other hand, antibodies that can discriminate between the FIG. 2 and Murphy and Tiffany receptors and bind only to one or the other are useful in diagnosis. The receptor of FIG. 2 binds MGSA poorly, in contrast to the Murphy and Tiffany receptor.

[12] = system: human neutrophils; assay: Inhibition of 125I-IL-8 binding to human neutrophils; conditions: 475 pM of MGSA, no antibody
Source text: Cells were washed twice in the HBSS medium and resuspended to be 1×10^6 cells/ml.

Row | Molecule | recognition of ligand by IL8R-A [5] | response of recombinant cells bearing the receptor [8] | response of recombinant cells bearing the receptor [9] | other results
1 | CSCC[C@H](NC=O)C(=O)N[C@@H](CC(C)C)C(=O)N[C@@H](Cc1ccccc1)C(=O)O [fMLP, f-Met-Leu-Phe, reference compound] | does not recognize |  |  | competition of 125I-IL-8 binding [1]: no competition; intracellular Ca++ response [2]: No response; intracellular Ca++ response [3]: respond; binding of 3H-fMLP to the expressed IL-8 receptor [4]: failed to detect any binding
2 | CCCCC/C=C\C[C@@H](O)/C=C/C=C/C=C\[C@@H](O)CCCC(=O)O [LTB4, reference compound] | does not recognize |  |  | 
3 | IL-8: Purified human 72 amino acid IL-8 made in E. coli |  | do not respond | do not respond | intracellular Ca++ response [2]: clear transient increase; intracellular Ca++ response [3]: not; binding of 125I-IL-8 to the expressed human fMLP receptor [6]: failed to detect any binding; IL-8 affinity compared with the receptor of FIG. 2 [7]: as high or higher; Kd ([5]; background, read-out: affinity of IL8R-A for ligand): 2 nM; Kd [10]: 2 nM
4 | TNF-α | does not recognize |  |  | 
5 | MCAF: macrophage chemotactic and activating factor, C-C peptide | does not recognize |  |  | 
6 | MGSA: NAP-3 (melanoma growth-stimulating activity [MGSA]/gro), C-X-C member of the PF4 superfamily | does recognize | do not respond | do not respond | Kd ([7]; read-out: affinity for MGSA): 1 to 10 nM; binding of MGSA [11]: poorly; inhibition of IL-8 binding to human neutrophils by MGSA [12]: approximately 50%; Kd [10]: 2 nM
7 | MCP1: PF4 superfamily ligand tested on cells bearing the FIG. 4 and 5 receptors |  | do not respond | do not respond | 
8 | B1 |  | do not respond | do not respond | 
9 | B2 | does not recognize |  |  | 
10 | B3 | does recognize |  |  | 
